This is an account of results in US20140336182A1, “Aurora Kinase Modulators and Method of Use” (Amgen Inc., priority 2013, published 2014).

One test concerns HeLa cells. As to the kind of experiment: HeLa cell 24 hr ploidy assay (DNA content). The class given is cell-based. The following applies: Homo sapiens, HeLa, 4N ploidy, average, read-out: 24h_4NPloidy EC50_IP (uM Avg). Put shortly:
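DNA content measured by Hoechst 33342 nuclear staining (0.5 ug/ml, 45 min RT) and high-content imaging of fixed HeLa cells after 24 h compound exposure in 0.25% DMSO. Fractions of 4N and >4N cells fitted to dose curves giving EC50 IP, EC50 transit, Max and Min.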
In the case of `COc1cnc2c(Oc3ccc(Nc4nnc(-c5cccc(C)n5)c5ccccc45)cc3)ccnc2c1` [compound 111], the EC50 is 0.109 µM.

In the case of `COc1cc2nccc(Oc3ccc(Nc4nnc(-c5cccc(C)n5)c5ccccc45)cn3)c2cn1` [compound 127], the EC50 was above 1.2 µM.

Turning to `COc1cc2nccc(Oc3ccc(Nc4nnc(-n5nc(C)cc5C)c5ccccc45)cc3F)c2cc1OC` [compound 77], the EC50 was 3.09 µM.

As to `CCc1cc(-c2ccccc2)nnc1Nc1ccc(Oc2ccnc3cc(OC)cnc23)nc1` [compound 83, 4-ethyl-N-(6-((7-(methyloxy)-1,5-naphthyridin-4-yl)oxy)-3-pyridinyl)-6-phenyl-3-pyridazinamine], the EC50 was determined as 0.349 µM.

Consider `COc1cc2ncnc(Oc3ccc(Nc4nnc(-c5ccccc5)c5ccccc45)cc3)c2cc1OC` [compound 98, N-(4-((6,7-bis(methyloxy)-4-quinazolinyl)oxy)phenyl)-4-phenyl-1-phthalazinamine], for which the EC50 stood at 0.019 µM.

For `COc1cc2nccc(Oc3ccc(Nc4nnc(-c5ccc(C)cn5)c5ccccc45)cc3)c2cn1` [compound 103], the EC50 was determined as 0.03 µM.

With `COc1cnc2c(Oc3ccc(Nc4nnc(N5CCCCCC5)c5ccccc45)cc3)ccnc2c1` [Example 32, 4-(azepan-1-yl)-N-(4-(7-methoxy-1,5-naphthyridin-4-yloxy)phenyl)phthalazin-1-amine], the EC50 was 0.036 µM.

In the case of `COc1ccc(-c2nnc(Nc3ccc(Oc4ccnc5cc(C#N)ccc45)cc3)c3ccccc23)cc1` [compound 141, 4-((4-((4-(4-(methyloxy)phenyl)-1-phthalazinyl)amino)phenyl)oxy)-7-quinolinecarbonitrile], the EC50 was found to be 0.025 µM.

For the compound `COc1cnc2c(Nc3ccc(Nc4nnc(-c5ccccc5)c5ccccc45)cc3)ccnc2c1` [Example 40, N′-(7-methoxy-1,5-naphthyridin-4-yl)-N4-(4-phenylphthalazin-1-yl)benzene-1,4-diamine], the EC50 was determined as 0.07 µM.

The test is the same for the next values; noted with them: Homo sapiens, HeLa, HeLa cells, 4N ploidy, average, read-out: 24h_4NPloidy EC50_IP (uM Avg).
`COc1cnc2c(Sc3ccc(Nc4nnc(N5CCN(CC(F)F)CC5)c5ccccc45)cc3)ccnc2c1` [compound 507]: the EC50 was found to be 0.018 µM.

For `c1ccc2c(-c3ccc4c(c3)OCO4)nnc(Nc3ccc(Oc4ccnc5ccncc45)cc3)c2c1` [compound 424], the EC50 stood at 0.024 µM.

With `c1ccc2c(-c3ccc4c(c3)OCO4)nnc(Nc3ccc(Oc4ccnc5ccsc45)cc3)c2c1` [compound 279], the EC50 is 0.011 µM.

For `COc1cnc2c(Oc3ccc(Nc4nnc(N5CCN(S(C)(=O)=O)CC5)c5ccccc45)cc3)ccnc2c1` [compound 607], the EC50 worked out at 0.482 µM.

Turning to `CC(=O)Nc1ccc2nccc(Oc3ccc(Nc4nnc(-c5ccccc5)c5ccccc45)cc3)c2c1` [Example 43, N-(4-(4-(4-Phenylphthalazin-1-ylamino)phenoxy)quinolin-6-yl)acetamide], the EC50 came to 0.025 µM.

For the compound `c1ccc2c(-c3ccc4c(c3)OCO4)nnc(Nc3ccc(Sc4ccnc5ccoc45)cc3)c2c1` [compound 467], the EC50 is 0.016 µM.

For the compound `Clc1ccc(-c2nnc(Nc3ccc(Oc4ncnc5[nH]cnc45)cc3)c3ccccc23)cc1` [compound 266], the EC50 is above 1.2 µM.

On to `Clc1ccc(-c2nnc(Nc3ccc(Sc4ccnc5ccoc45)cc3)c3ccccc23)nc1` [Example 391, 4-(5-Chloropyridin-2-yl)-N-(4-(furo[3,2-b]pyridin-7-ylthio)phenyl)phthalazin-1-amine], for which the EC50 stood at 0.032 µM.

`Clc1ccc(-c2nnc(Nc3ccc(Oc4cnnc5ccc(Br)cc45)cc3)c3ccccc23)cc1` [compound 369]: the EC50 was above 1.2 µM.

Regarding `c1ccc2c(-c3ccc4c(c3)OCO4)nnc(Nc3ccc(Sc4ccnc5ccncc45)cc3)c2c1` [compound 427], the EC50 was 0.002 µM.

For the compound `CCOc1nc(-c2nnc(Nc3ccc(Oc4ccnc5cc(OC)cnc45)cc3)c3ccccc23)cs1` [compound 175], the EC50 amounted to 0.059 µM.

With `c1ccc(-c2nnc(Nc3ccc(Oc4ncnc5[nH]ccc45)cc3)c3ccccc23)cc1` [compound 273], the EC50 was above 1.2 µM.

Consider `c1ccc(-c2nnc(Nc3ccc(Oc4ccnc5cc(-c6ccoc6)ccc45)cc3)c3ccccc23)cc1` [compound 343], for which the EC50 turned out to be 0.025 µM.

In the case of `COc1cnc2c(Oc3ccc(Nc4nnc(-c5ccc(Cl)cc5)c5ccccc45)cn3)ccnc2c1` [compound 222, 4-(4-chlorophenyl)-N-(6-((7-(methyloxy)-1,5-naphthyridin-4-yl)oxy)-3-pyridinyl)-1-phthalazinamine], the EC50 is 0.026 µM.

On to `COc1cnc2c(Sc3ccc(Nc4nnc(-c5ccccc5)c5ccccc45)cc3F)ccnc2c1` [compound 519], for which the EC50 worked out at 0.009 µM.

Consider `FC(F)(F)Oc1ccc2nccc(Sc3ccc(Nc4nnc(-c5ccccc5)c5ccccc45)cc3)c2c1` [compound 571], for which the EC50 turned out to be 0.06 µM.

Take `CCc1ccc(-c2nnc(Nc3ccc(Oc4ccnc5cc(OC)cnc45)cc3)c3ccccc23)cc1` [compound 221]: the EC50 amounted to 0.015 µM.

As to `N#Cc1ccc2c(Oc3ccc(Nc4nnc(-c5ccccc5)c5ccccc45)cn3)ccnc2c1` [compound 174], the EC50 is at least 1.2 µM.

`c1ccc(-c2nnc(Nc3ccc(Sc4ccnc5c4CCCN5)cc3)c3ccccc23)cc1` [compound 577]: the EC50 came to 0.025 µM.

As to `CCc1cc(N2CCCCC2)nnc1Nc1ccc(Oc2ccnc3cc(OC)cnc23)cc1` [compound 321], the EC50 is above 1.2 µM.

As to `COc1cnc2c(Oc3ccc(Nc4nnc(-c5ccc(F)nc5)c5ccccc45)cc3)ccnc2c1` [compound 190, 4-(6-fluoro-3-pyridinyl)-N-(4-((7-(methyloxy)-1,5-naphthyridin-4-yl)oxy)phenyl)-1-phthalazinamine], the EC50 was found to be 0.129 µM.

Take `N#Cc1cc2nccc(Sc3ccc(Nc4nnc(-c5ccc(Cl)cc5)c5ccccc45)cc3)c2s1` [compound 351]: the EC50 is 0.053 µM.

On to `COc1cnc2c(Sc3ccc(Nc4nnc(-c5ccc6cn(C)nc6c5)c5ccccc45)cc3)ccnc2c1` [compound 502], for which the EC50 worked out at 0.006 µM.

For `COc1ccc2nccc(Oc3ccc(Nc4nnc(-c5ccc(Cl)cc5)c5ccccc45)cc3)c2c1` [compound 239], the EC50 worked out at 0.001 µM.

For `COc1ccc2nccc(Sc3ccc(Nc4nnc(-c5cc(C)cs5)c5ccccc45)cc3)c2n1` [compound 549], the EC50 was 0.009 µM.

For the compound `COc1cnc2c(Sc3ccc(Nc4nnc(OCC(F)(F)F)c5ccccc45)cc3)ccnc2c1` [compound 513], the EC50 came to 0.059 µM.

With `COc1cnc2c(Oc3ccc(Nc4nnc(-c5nccn5C)c5ccccc45)cc3)ccnc2c1` [Example 30, N-(4-(7-methoxy-1,5-naphthyridin-4-yloxy)phenyl)-4-(1-methyl-1H-imidazol-2-yl)phthalazin-1-amine], the EC50 is above 1.2 µM.

For `COc1cnnc(Nc2ccc(Oc3ccnc4cc(OC)cnc34)cc2)c1` [compound 456], the EC50 was above 1.2 µM.

Regarding `Oc1cnc2c(Sc3ccc(Nc4nnc(-c5ccccc5)c5ccccc45)cc3)ccnc2c1` [compound 415], the EC50 was 0.015 µM.

Take `COc1cnc2c(Oc3ccc(Nc4nnc(-c5ccc(Cl)cc5OC)c5ccccc45)cc3)ccnc2c1` [compound 253]: the EC50 amounted to 0.835 µM.

Take `Clc1ccc(-c2nnc(Nc3ccc(Sc4ccnc5[nH]ccc45)cc3)c3ccccc23)cc1` [compound 330]: the EC50 came to 0.016 µM.

In the case of `COc1cc(OC)c2c(Sc3ccc(Nc4nnc(-c5ccc(Cl)cc5)c5ccccc45)cc3)ccnc2c1` [compound 436], the EC50 stood at 0.049 µM.

Take `COc1cnc2c(Sc3ccc(Nc4nnc(N5CCN6CCCC[C@H]6C5)c5ccccc45)cc3)ccnc2c1` [compound 585]: the EC50 was 0.018 µM.

Regarding `COc1cc2c(Oc3ccc(Nc4nnc(-c5ccccc5)c5ccccc45)cc3)ccnc2cc1OCc1ccccc1` [compound 326], the EC50 stood at 0.06 µM.

In the case of `Cc1ccc(-c2ccc3c(Oc4ccc(Nc5nnc(-c6ccccc6)c6ccccc56)cc4)ccnc3c2)o1` [compound 344], the EC50 came to 0.044 µM.

Take `COc1cnc2c(Oc3ccc(Nc4nnc(-c5ccc(F)c(F)c5)c5ccccc45)cc3)ccnc2c1` [compound 214]: the EC50 stood at 0.033 µM.

As to `CCOc1nnc(Nc2ccc(Sc3ccnc4cc(OC)cnc34)cc2)c2ccccc12` [compound 512], the EC50 worked out at 0.033 µM.

`c1ccc(-c2nnc(Nc3ccc(Oc4ccnc5cc(N6CCOCC6)ccc45)cc3)c3ccccc23)cc1` [Example 42, N-(4-(7-Morpholinoquinolin-4-yloxy)phenyl)-4-phenylphthalazin-1-amine]: the EC50 was 0.007 µM.

For the compound `COc1ccc2nccc(Sc3ccc(Nc4nnc(-c5ccc(Cl)cc5)c5ccccc45)cc3)c2n1` [compound 348], the EC50 is 0.012 µM.

For the compound `Clc1ccc(-c2nnc(Nc3ccc(Oc4ccnc5ccsc45)cc3)c3ccccc23)cc1` [compound 250, 4-(4-chlorophenyl)-N-(4-(thieno[3,2-b]pyridin-7-yloxy)phenyl)-1-phthalazinamine], the EC50 amounted to 0.031 µM.

For `COc1cnc2c(Oc3ccc(Nc4nnc(-c5c(C)nn(C)c5C)c5ccccc45)cc3)ccnc2c1` [compound 261], the EC50 was above 1.2 µM.

With `CC(C)n1ccc2nccc(Sc3ccc(Nc4nnc(-c5ccc(Cl)cc5)c5ccccc45)cc3)c21` [compound 471], the EC50 was found to be 0.006 µM.

With `COc1ccc2ncnc(Oc3ccc(Nc4nnc(-c5ccc(Cl)cc5)c5ccccc45)cc3)c2c1` [compound 564], the EC50 came out at 0.043 µM.

Regarding `Cc1noc(-c2cc3nccc(Oc4ccc(Nc5nnc(-c6ccc(Cl)cc6)c6ccccc56)cc4)c3s2)n1` [compound 286], the EC50 is 0.088 µM.

As for `Clc1cccc(-c2nnc(Nc3ccc(Sc4ccnc5ccsc45)cc3)c3ccccc23)c1` [compound 518], the EC50 was 0.016 µM.

The test is the same for the next values; noted with them: Homo sapiens, HeLa, HeLa cells, average, read-out: 24h_4NPloidy EC50_IP (uM Avg).
Turning to `COc1ccc2c(C(C)c3ccc(Nc4nnc(-c5ccc(Cl)cc5)c5ccccc45)cc3)ccnc2c1` (centres unmarked) [compound 613], the EC50 is above 1.2 µM.

Turning to `COc1ccc2c(C(=O)c3ccc(Nc4nnc(-c5ccc(Cl)cc5)c5ccccc45)cc3)ccnc2c1` [compound 615], the EC50 amounted to 0.15 µM.
